In patent US20140274969A1 (priority 2013, published 2014):
Read-outs that look alike come from different tables or passages of the source.

Experiments:
[1] = Serum and CSF minocycline steady-state levels in SCI trial subjects
Procedure: Drug or placebo infusions were continued for a total of 14 doses i.e., for 7 days after injury (FIG. 1). All infusions were administered through a subclavian central venous catheter for a 30-min period.
Each sample was centrifuged at 2000 rpm for 5 min to separate cellular matter. The supernatant was flash frozen and stored at −80° C. in aliquots.

[2] = Procedure: Subjects were evaluated for adverse events daily while in hospital and at each subsequent clinical evaluation. All serious adverse events (Table 4) were reviewed promptly by a safety monitoring board composed of clinicians and clinician researchers not otherwise involved in this study. A summary of all adverse events was reviewed every 6 months.
The model assumed that any change associated with treatment group was constant over these time points. An interaction term between treatment and injury type was included to allow for the possibility that changes associated with treatment group differed among motor-complete and motor-incomplete injured subjects. ASIA sensory scores were similarly evaluated. ASIA motor, pin-prick and light scores were evaluated by the Shapiro-Wilk normality test and were consistent with a normal distribution. Functional recovery data were compared over all data points. Adverse events were categorized by system and mean numbers of events per patient were compared within each system by ANOVA. All statistical tests were two-tailed (a=0.05). […] The Student t-test was then used to estimate the between group difference that this study was powered to detect with power=0.8 and a=0.05.

acute traumatic SCI [3] = test: ASIA sensory recovery (pinprick, light touch) after acute traumatic SCI; type: in vivo, human
Procedure: Clin. Exp. Pharmacol. Physiol. 1:299-308). […] Neurological function was assessed at intervals using the American Spinal Cord Injury Association (ASIA) standardized neurological examination and included the motor composites and sensory composites. These examinations were performed by a physical medicine and rehabilitation specialist at Day 1 (time of enrolment), Day 4, Day 5, Day 7, Week 3, Week 6, Week 12, Month 6, and Month 12 (Table 3). Day 1 scores were subtracted from each subsequent score to calculate improvement from baseline for graphing purposes. […] ASIA sensory scores were similarly evaluated. […] Functional recovery data were compared over all data points. […] All statistical tests were two-tailed (a=0.05).

acute traumatic SCI [4] = test: Functional recovery scales (SCIM, FIM, London Handicap, SF36) after SCI; type: in vivo, human; settings: 6 to 52 weeks after injury
Procedure: Clin. Exp. Pharmacol. Physiol. 1:299-308). […] Functional outcome was assessed using the Spinal Cord Independence Measure, Functional Independence Measure, London Handicap scale, and Short Form 36 questionnaires administered at 6 weeks, 12 weeks, 26 weeks, and 52 weeks after injury. […] ASIA sensory scores were similarly evaluated. […] Functional recovery data were compared over all data points. […] All statistical tests were two-tailed (a=0.05).

[5] = system: hypoxic-ischemic brain injury; settings: mice; s.c. 135 mg/kg then two 68 mg/kg doses at 24-h intervals; cited from earlier work
cervical SCI = settings: rat; 90 mg/kg i.p. daily for 3 days; 42-day monitoring; cited from earlier work
[6] = 200 mg twice-daily intravenously
[7] = 800 mg loading dose tapered by 100 mg every 12 h to 400 mg, IV, 7 days
[8] = High dose (800 mg tapered by 100 mg each 12 h to 400 mg, 7 days)
[9] = Low dose (200 mg IV twice daily, 7 days)

With `CN(C)c1ccc(O)c2c1C[C@H]1C[C@H]3[C@H](N(C)C)C(O)=C(C(N)=O)C(=O)[C@@]3(O)C(O)=C1C2=O` [minocycline, (2E,4S,4aR,5aS,12aR)-2-(amino-hydroxy-methylidene)-4,7-bis(dimethylamino)-10,11,12a-trihydroxy-4-a,5,5a,6-tetrahydro-4H-tetracene-1,3,12-trione] the CSF steady-state concentration [1, 6] was 1 µg/mL, the “time to serum steady state” value [1, 6] was at most 48 h and the serum steady-state concentration ([1]; 200 mg twice-daily intravenously, first five patients) was 4.2 µg/mL. For the same compound, the “time to serum and CSF steady state” value ([1]; 800 mg loading dose tapered by 100 mg every 12 h to 400 mg, IV) was at most 24 h, the CSF steady state [1, 7] was 2.3 µg/mL and the serum steady-state concentration [1, 7] was 12.7 µg/mL. For the same compound, the “Autonomic dysreflexia: # of events” value [2, 8] was 1, the “Autonomic dysreflexia: # of subjects” value [2, 8] was 1 and the “Cardiac: # of events” value [2, 8] was 14. The “Cardiac: # of subjects” value [2, 8] was 9, the “Deep venous thrombosis: # of events” value [2, 8] was 1 and the “Deep venous thrombosis: # of subjects” value [2, 8] was 1. For the same compound, the “Deep venous thrombosis: events/subject” value [2, 8] was 0.06, the “Endocrine: # of events” value [2, 8] was 0 and the “Endocrine: # of subjects” value [2, 8] was 0. The “Endocrine: events/subject” value [2, 8] was 0, the “Gastrointestinal: # of events” value [2, 8] was 36 and the “Gastrointestinal: # of subjects” value [2, 8] was 12. The “Gastrointestinal: events/subject” value [2, 8] was 1.88, the “Genito-urinary: # of events” value [2, 8] was 7 and the “Genito-urinary: # of subjects” value [2, 8] was 5. For the same compound, the “Genito-urinary: events/subject” value [2, 8] was 0.44, the “Haematological: # of events” value [2, 8] was 9 and the “Haematological: # of subjects” value [2, 8] was 6. The “Haematological: events/subject” value [2, 8] was 0.63, the “Infectious: # of events” value [2, 8] was 28 and the “Infectious: # of subjects” value [2, 8] was 11. For the same compound, the “Infectious: events/subject” value [2, 8] was 1.38, the “Integumentary: # of events” value [2, 8] was 21 and the “Integumentary: # of subjects” value [2, 8] was 11. The “Integumentary: events/subject” value [2, 8] was 1.13, the “Musculoskeletal: # of events” value [2, 8] was 14 and the “Musculoskeletal: # of subjects” value [2, 8] was 13. For the same compound, the “Musculoskeletal: events/subject” value [2, 8] was 0.75, the “Neurological: # of events” value [2, 8] was 16 and the “Neurological: # of subjects” value [2, 8] was 10. For the same compound, the “Neurological: events/subject” value [2, 8] was 0.56, the “Other: # of events” value [2, 8] was 19 and the “Other: # of subjects” value [2, 8] was 11. The “Pain: # of events” value [2, 8] was 31, the “Pain: # of subjects” value [2, 8] was 14 and the “Psychiatric: # of events” value [2, 8] was 18. The “Psychiatric: # of subjects” value [2, 8] was 8, the “Psychiatric: events/subject” value [2, 8] was 1.13 and the “Respiratory: # of events” value [2, 8] was 13. For the same compound, the “Respiratory: # of subjects” value [2, 8] was 9, the “Respiratory: events/subject” value [2, 8] was 0.81 and the “Serious adverse events: # of events” value [2, 8] was 1. The “Serious adverse events: # of subjects” value [2, 8] was 1, the “Serious adverse events: events/subject” value [2, 8] was 0.06 and the “Autonomic dysreflexia: # of events” value [2, 9] was 0. For the same compound, the “Autonomic dysreflexia: # of subjects” value [2, 9] was 0, the “Cardiac: # of events” value [2, 9] was 5 and the “Cardiac: # of subjects” value [2, 9] was 4. For the same compound, the “Deep venous thrombosis: # of events” value [2, 9] was 0, the “Deep venous thrombosis: # of subjects” value [2, 9] was 0 and the “Deep venous thrombosis: events/subject” value [2, 9] was 0. The “Endocrine: # of events” value [2, 9] was 1, the “Endocrine: # of subjects” value [2, 9] was 1 and the “Endocrine: events/subject” value [2, 9] was 0.2. For the same compound, the “Gastrointestinal: # of events” value [2, 9] was 12, the “Gastrointestinal: # of subjects” value [2, 9] was 5 and the “Gastrointestinal: events/subject” value [2, 9] was 2.2. For the same compound, the “Genito-urinary: # of events” value [2, 9] was 0, the “Genito-urinary: # of subjects” value [2, 9] was 0 and the “Genito-urinary: events/subject” value [2, 9] was 0. For the same compound, the “Haematological: # of events” value [2, 9] was 2, the “Haematological: # of subjects” value [2, 9] was 2 and the “Haematological: events/subject” value [2, 9] was 0.4. For the same compound, the “Infectious: # of events” value [2, 9] was 12, the “Infectious: # of subjects” value [2, 9] was 4 and the “Infectious: events/subject” value [2, 9] was 1.8. The “Integumentary: # of events” value [2, 9] was 5, the “Integumentary: # of subjects” value [2, 9] was 4 and the “Integumentary: events/subject” value [2, 9] was 1.0. The “Musculoskeletal: # of events” value [2, 9] was 4, the “Musculoskeletal: # of subjects” value [2, 9] was 4 and the “Musculoskeletal: events/subject” value [2, 9] was 0.6. For the same compound, the “Neurological: # of events” value [2, 9] was 11, the “Neurological: # of subjects” value [2, 9] was 5 and the “Neurological: events/subject” value [2, 9] was 1.6. The “Other: # of events” value [2, 9] was 13, the “Other: # of subjects” value [2, 9] was 5 and the “Pain: # of events” value [2, 9] was 10. For the same compound, the “Pain: # of subjects” value [2, 9] was 5, the “Psychiatric: # of events” value [2, 9] was 8 and the “Psychiatric: # of subjects” value [2, 9] was 4. For the same compound, the “Psychiatric: events/subject” value [2, 9] was 1.2, the “Respiratory: # of events” value [2, 9] was 5 and the “Respiratory: # of subjects” value [2, 9] was 4. The “Respiratory: events/subject” value [2, 9] was 1.0, the “Serious adverse events: # of events” value [2, 9] was 1 and the “Serious adverse events: # of subjects” value [2, 9] was 1. The “Serious adverse events: events/subject” value [2, 9] was 0.2, the “adverse events among placebo, low-dose and high-dose groups” value ([2]; low-dose (200 mg) or high-dose (400 mg) vs placebo) was “did not vary significantly” and the “ASIA pinprick sensory recovery greater than placebo” value (acute traumatic SCI [3]; all subjects, not statistically significant, P=0.15) was “nine”. The “ASIA light-touch sensory recovery greater than placebo” value (acute traumatic SCI [3]; all subjects, not statistically significant, P=0.27) was “seven”, the “ASIA light-touch score higher than placebo” value (acute traumatic SCI [3]; cervical motor-incomplete, P=0.20) was 20 light-touch points and the “ASIA pinprick score higher than placebo” value (acute traumatic SCI [3]; cervical motor-incomplete, P=0.49) was 14 pinprick points. The “difference in sensory scores vs placebo” value (acute traumatic SCI [3]; thoracic SCI) was “No difference”, the “functional outcomes (SCIM, FIM, London Handicap Scale, Short Form 36) vs placebo” value (acute traumatic SCI [4]) was “greater in the minocycline-treated group but the differences were not statistically significant” and the “effects of hypoxic-ischemic brain injury” value [5] was “significantly exacerbated”. For the same compound, the “functional or histological improvements” value (cervical SCI) was “did not result in any functional or histological improvements”.
